Assays:
EMT6 [1] = test: Compound is measured for surviving fractions of EMT6 tumor cells treated in culture with (0.50 uM) concentration for 1 hr under aerobic condition.; type: functional; details: Mus musculus, EMT6, 1 h; read-out: ED50 (the source's name)
EMT6 [2] = test: Compound is measured for surviving fractions of EMT6 tumor cells treated in culture with (0.50 uM) concentration for 1 hr under hypoxic condition.; type: functional; details: Mus musculus, EMT6, 1 h; read-out: ED50 (the source's name)
[3] = Ratio of toxicity in areobic conditions to hypoxic condition of EMT6 cells; type: functional
EMT6 [4] = test: Maximum effective concentration against EMT6 tumor cells uncer aerobic conditions; type: functional, cell-based; details: Mus musculus
EMT6 [5] = test: Percentage of EMT6 tumor cells under hypoxic condition were killed when exposed to 10 uM concentration of the compound; type: functional, Mus musculus

Row | Structure (SMILES) | EC50 (EMT6 [1]) | EC50 (EMT6 [2]) | Ratio [3] | Concentration (EMT6 [4]) | Inhibition (EMT6 [5])
1 | Cc1ccc2c(c1)C(=O)c1ccccc1C2=O [TECTOQUINONE] | 1.7 µM | 0.54 µM | 3.2 |  | 
2 | CNC(=O)OCc1ccc2c(c1)C(=O)c1ccccc1C2=O | 8.1 µM | 0.27 µM | 30 | 100 µM | 
3 | O=C1c2ccccc2C(=O)c2cc(CO)ccc21 | 348 µM | 2.5 µM | 139 |  | 
4 | CS(=O)(=O)OCc1ccc2c(c1)C(=O)c1ccccc1C2=O | 180 µM | 69.6 µM | 2.6 |  | 
5 | COCc1ccc2c(c1)C(=O)c1ccccc1C2=O | 30 µM | 0.6 µM | 50 |  | 
6 | Cc1ccc(S(=O)(=O)OCc2ccc3c(c2)C(=O)c2ccccc2C3=O)cc1 | > 1000 µM | 9 µM | >111 |  | 50%
7 | O=C1c2ccccc2C(=O)c2cc(CCl)ccc21 | 0.31 µM | < 0.012 µM | >26 |  | 
8 | CC(=O)OCc1ccc2c(c1)C(=O)c1ccccc1C2=O | 3.6 µM | 9 µM | 0.4 |  | 
9 | COc1cccc2c1C(=O)c1c(O)c3c(c(O)c1C2=O)C[C@@](O)(C(=O)CO)C[C@@H]3O[C@H]1C[C@H](N)[C@H](O)[C@H](C)O1 [DOXORUBICIN] | 0.012 µM | < 0.0001 µM | >120 |  | 
10 | CO[C@@]12[C@H](COC(N)=O)C3=C(C(=O)C(C)=C(N)C3=O)N1C[C@@H]1N[C@@H]12 [MITOMYCIN] | 0.7 µM | 0.001 µM | 700 |  | 
